Data from patent publication US20130158075A1, “HETEROCYCLIC COMPOUNDS AS DGAT1 INHIBITORS” (PIRAMAL ENTERPRISES LIMITED, priority 2010, published 2013).
Counter-ions that a name gives are not always drawn.

Target: T1, hDGAT1 (Homo sapiens, UniProt O75907)
T1 construct: made in house; host or cells: Sf9 insect cells (baculovirus); microsomal fraction
T1 sequence (O75907 1-488): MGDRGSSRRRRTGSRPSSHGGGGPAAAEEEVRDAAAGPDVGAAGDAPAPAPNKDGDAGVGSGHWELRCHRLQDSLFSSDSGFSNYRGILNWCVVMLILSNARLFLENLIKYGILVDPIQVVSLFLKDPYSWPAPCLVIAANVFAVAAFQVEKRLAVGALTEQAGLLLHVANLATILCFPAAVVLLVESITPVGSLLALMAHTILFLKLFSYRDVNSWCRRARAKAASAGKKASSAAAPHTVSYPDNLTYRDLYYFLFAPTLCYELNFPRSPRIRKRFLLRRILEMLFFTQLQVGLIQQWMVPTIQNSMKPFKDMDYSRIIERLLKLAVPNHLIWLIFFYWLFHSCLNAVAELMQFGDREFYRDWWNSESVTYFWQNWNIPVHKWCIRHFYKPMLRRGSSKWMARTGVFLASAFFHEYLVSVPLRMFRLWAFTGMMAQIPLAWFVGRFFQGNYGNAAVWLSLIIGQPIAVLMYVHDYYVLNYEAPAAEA
Test: In-vitro DGAT1 assay with hDGAT1 microsomes from Sf9 cells (14C oleoyl CoA, scintillation counting)
Format: biochemical
Settings: for inhibition at 1 µM: read-out: Percentage inhibition of hDGAT1; for Percentage inhibition of hDGAT1: at 1 μM
Outline: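 Microsomes from Sf9 cells infected with hDGAT1 baculovirus (MOI 5, harvested ~66-72 h) were incubated with [14C]oleoyl-CoA and 1,2-dioleoyl-sn-glycerol at 37 °C for 10 min, in duplicate. After alkaline ethanol stop, triglycerides were heptane-extracted and counted by liquid scintillation; percent inhibition was plotted against compound concentration (nM).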

SMILES | inhibition at 1 µM | Percentage inhibition of hDGAT1
O=C(Nc1ccc(-c2cnc(C3CCC(C(=O)O)CC3)o2)cc1)Nc1ccccc1Cl (centres unmarked) [Example 204, 4-(5-(4-(3-(2-Chlorophenyl)ureido)phenyl)oxazol-2-yl)cyclohexanecarboxylic acid] | 20 to 50% | 
O=C(Nc1ccccc1)Nc1ccc(-c2cnc(C3CCC(C(=O)O)CC3)o2)cc1 (centres unmarked) [Example 206, 4-(5-(4-(3-Phenylureido)phenyl)oxazol-2-yl)cyclohexanecarboxylic acid] | 20 to 50% | 
COc1ccccc1NC(=O)Nc1ccc(-c2cnc(C3CCC(C(=O)O)CC3)o2)cc1 (centres unmarked) [Example 210, 4-(5-(4-(3-(2-Methoxyphenyl)ureido)phenyl)oxazol-2-yl)cyclohexane carboxylic acid] | 20 to 50% | 
O=C(Nc1ccc(-c2noc([C@H]3CC[C@H](C(=O)O)CC3)n2)cc1)Nc1ccccc1Cl [Example 219, (1r,4r)-4-(3-(4-(3-(2-Chlorophenyl)ureido)phenyl)-1,2,4-oxadiazol-5-yl)cyclo hexanecarboxylic acid] |  | + (20-50% Inhibition)
O=C(Nc1ccc(-c2noc([C@H]3CC[C@H](C(=O)O)CC3)n2)cc1)Nc1ccc(F)cc1F [Example 221, (1r,4r)-4-(3-(4-(3-(2,4-Difluorophenyl)ureido)phenyl)-1,2,4-oxadiazol-5-yl)cyclohexanecarboxylic acid] |  | + (20-50% Inhibition)
Cc1ccc(NC(=O)Nc2ccc(-c3noc([C@H]4CC[C@H](C(=O)O)CC4)n3)cc2)cc1 [Example 223, (1r,4r)-4-(3-(4-(3-p-Tolylureido)Phenyl)-1,2,4-oxadiazol-5-yl)cyclohexane carboxylic acid] |  | + (20-50% Inhibition)
O=C(Nc1ccc(-c2noc([C@H]3CC[C@H](C(=O)O)CC3)n2)cc1)Nc1cccc(Cl)c1 [Example 225, (1r,4r)-4-(3-(4-(3-(3-Chlorophenyl)ureido)phenyl)-1,2,4-oxadiazol-5-yl)cyclo hexanecarboxylic acid] |  | ++ (>50 % Inhibition)
O=C(Nc1ccc(-c2noc([C@H]3CC[C@H](C(=O)O)CC3)n2)cc1)Nc1ccc(Cl)cc1Oc1ccccc1 [Example 227, (1r,4r)-4-(3-(4-(3-(4-Chloro-2-phenoxyphenyl)ureido)phenyl)-1,2,4-oxadiazol-5-yl)cyclohexanecarboxylic acid] |  | ++ (>50 % Inhibition)
CC(C)(C)c1ccc(C(=O)Nc2ccc(-c3noc([C@H]4CC[C@H](C(=O)O)CC4)n3)cc2)cc1 [Example 229, (1r,4r)-4-(3-(4-(4-tert-Butylbenzamido)phenyl)-1,2,4-oxadiazol-5-yl)cyclo hexane carboxylic acid] |  | + (20-50% Inhibition)
O=C(Nc1ccc(-c2noc([C@H]3CC[C@H](C(=O)O)CC3)n2)cc1)c1ccc(-c2ccccc2)cc1 [Example 231, (1r,4r)-4-(3-(4-Biphenyl-4-ylcarboxamidophenyl)-1,2,4-oxadiazol-5-yl)cyclo hexanecarboxylic acid] |  | + (20-50% Inhibition)
CC(C)(CCc1ncc(-c2ccc(NC(=O)Nc3cc(F)cc(F)c3)cc2)s1)C(=O)O [Example 235, 4-(5-(4-(3-(3,5-Difluorophenyl)ureido)phenyl)thiazol-2-yl)-2,2-dimethyl butanoic acid] | > 50% | 
CC(C)(CCc1ncc(-c2ccc(NC(=O)Nc3cc(F)c(F)cc3F)cc2)s1)C(=O)O [Example 237, 2,2-Dimethyl-4-(5-(4-(3-(2,4,5-trifluorophenyl)ureido)phenyl)thiazol-2-yl)butanoic acid] | > 50% | 
CC(C)(CCc1ncc(-c2ccc(NC(=O)Nc3cc(F)c(F)cc3F)cc2)s1)C(=O)[O-].[Na+] [Example 237A, Sodium salt of 2,2-dimethyl-4-(5-(4-(3-(2,4,5-trifluorophenyl)ureido)phenyl)thiazol-2-yl)butanoate] |  | ++ (>50 % Inhibition)
CC(C)(CCc1ncc(-c2ccc(NC(=O)N3CCCCC3)cc2)s1)C(=O)O [Example 239, 2,2-Dimethyl-4-(5-(4-(piperidine-1-carboxamido)phenyl)thiazol-2-yl)butanoic acid] | 20 to 50% | 
CC(C)(CCc1ncc(-c2ccc(NC(=O)N3CCOCC3)cc2)s1)C(=O)O [Example 241, 2,2-Dimethyl-4-(5-(4-(morpholine-4-carboxamido)phenyl)thiazol-2-yl)butanoic acid] | 20 to 50% | 
CC(C)(CCc1ncc(-c2ccc(NC(=O)Nc3ccc4c(c3)OCCO4)cc2)s1)C(=O)O [Example 245, 4-(5-(4-(3-(2,3-Dihydrobenzo[b][1,4]dioxin-6-yl)ureido)phenyl)thiazol-2-yl)-2,2-dimethylbutanoic acid] | > 50% | 
CC(C)(CCc1ncc(-c2ccc(NC(=O)NCc3ccccc3)cc2)s1)C(=O)O [Example 259, 4-(5-(4-(3-Benzylureido)phenyl)thiazol-2-yl)-2,2-dimethylbutanoic acid] | > 50% | 
CC(C)(CCc1ncc(-c2ccc(NC(=O)N3CCC(F)(F)CC3)cc2)s1)C(=O)O [Example 261, 4-(5-(4-(4,4-Difluoropiperidine-1-carboxamido)phenyl)thiazol-2-yl)-2,2-dimethyl butanoic acid] | 20 to 50% | 
O=C(O)CCCc1nnc(-c2ccc(NC(=O)Nc3cccc(C(F)(F)F)c3)cc2)s1 [Example 278, 4-(5-(4-(3-(3-(Trifluoromethyl)phenyl)ureido)phenyl)-1,3,4-thiadiazol-2-yl)butanoic acid] | > 50% | 

Other lines, results leading:

inhibition at 1 µM | Percentage inhibition of hDGAT1 | SMILES
> 50% |  | O=C(Nc1ccc(-c2cnc(C3CCC(C(=O)O)CC3)o2)cc1)Nc1cccc(Cl)c1 (centres unmarked) [Example 208, 4-(5-(4-(3-(3-Chlorophenyl)ureido)phenyl)oxazol-2-yl)cyclohexanecarboxylic acid]
20 to 50% |  | CC(C)(C)c1ccc(C(=O)Nc2ccc(-c3cnc(C4CCC(C(=O)O)CC4)o3)cc2)cc1 (centres unmarked) [Example 214, 4-(5-(4-(4-Tert-butylbenzamido)phenyl)oxazol-2-yl)cyclohexanecarboxylic acid]
 | + (20-50% Inhibition) | O=C(Nc1ccc(-c2noc([C@H]3CC[C@H](C(=O)O)CC3)n2)cc1)c1ccc(OC(F)(F)F)cc1 [Example 233, (1r,4r)-4-(3-(4-(4-(Trifluoromethoxy)benzamido)phenyl)-1,2,4-oxadiazol-5-yl)cyclohexanecarboxylic acid]
 | ++ (>50 % Inhibition) | CC(C)(CCc1ncc(-c2ccc(NC(=O)Nc3cc(F)cc(F)c3)cc2)s1)C(=O)[O-].[Na+] [Example 235A, Sodium salt of 4-(5-(4-(3-(3,5-difluorophenyl)ureido)phenyl)thiazol-2-yl)-2,2-dimethylbutanoate]
20 to 50% |  | CN1CCN(C(=O)Nc2ccc(-c3cnc(CCC(C)(C)C(=O)O)s3)cc2)CC1 [Example 243, 2,2-Dimethyl-4-(5-(4-(4-methylpiperazine-1-carboxamido)phenyl)thiazol-2-yl)butanoic acid hydrochloride]
20 to 50% |  | CC(C)(CCc1ncc(-c2ccc(NC(=O)Nc3nnn[nH]3)cc2)s1)C(=O)O [Example 247, 4-(5-(4-(3-(1H-tetrazol-5-yl)ureido)phenyl)thiazol-2-yl)-2,2-dimethylbutanoic acid]
20 to 50% |  | COCCNC(=O)Nc1ccc(-c2cnc(CCC(C)(C)C(=O)O)s2)cc1 [Example 249, 4-(5-(4-(3-(2-methoxyethyl)ureido)phenyl)thiazol-2-yl)-2,2-dimethylbutanoic acid]
> 50% |  | CC(C)(CCc1ncc(-c2ccc(NC(=O)NC3Cc4ccccc4C3)cc2)s1)C(=O)O [Example 251, 4-(5-(4-(3-(2,3-Dihydro-1H-inden-2-yl)ureido)phenyl)thiazol-2-yl)-2,2-dimethyl butanoic acid]
> 50% |  | CC(C)(CCc1ncc(-c2ccc(NC(=O)Nc3cc(F)c(F)c(F)c3)cc2)s1)C(=O)O [Example 255, 2,2-dimethyl-4-(5-(4-(3-(3,4,5-trifluorophenyl)ureido)phenyl)thiazol-2-yl)butanoic acid]
 | ++ (>50 % Inhibition) | CC(C)(CCc1ncc(-c2ccc(NC(=O)Nc3cc(F)c(F)c(F)c3)cc2)s1)C(=O)[O-].[Na+] [Example 255A, Sodium salt of 2,2-dimethyl-4-(5-(4-(3-(3,4,5-trifluorophenyl)ureido)phenyl)thiazol-2-yl)butanoate]
20 to 50% |  | CC(C)(CCc1ncc(-c2ccc(NC(=O)NCCN3CCCCC3)cc2)s1)C(=O)O [Example 257, 2,2-Dimethyl-4-(5-(4-(3-(2-(piperidin-1-yl)ethyl)ureido)phenyl)thiazol-2-yl)butanoic acid]
> 50% |  | CC(C)(CCc1ncc(-c2ccc(NC(=O)N3CCC(c4ccccc4)CC3)cc2)s1)C(=O)O [Example 263, 2,2-Dimethyl-4-(5-(4-(4-phenylpiperidine-1-carboxamido)phenyl)thiazol-2-yl)butanoic acid]
20 to 50% |  | CC(C)(CCc1ncc(-c2ccc(NC(=O)NCc3ccc(C#N)cc3)cc2)s1)C(=O)O [Example 265, 4-(5-(4-(3-(4-Cyanobenzyl)ureido)phenyl)thiazol-2-yl)-2,2-dimethylbutanoic acid]
